Laboratory results as given in patent US20220296680A1, “TREATMENT AND PREVENTION OF CARDIORENAL DAMAGE” (Oslo Universitetssykehus HF, priority 2021, published 2022).

Key:
ZSF1-Ob rats = assay: Interventional study in pre-HFpEF ZSF1-Ob rats (obesity, diabetes, hypertension, diastolic dysfunction); format: in vivo, rat
Experimental: A hybrid rat that was a cross between a ZDF female and an SHHF male was utilized.
Briefly, we performed an interventional study in pre-HFpEF rats (15 weeks old) affected by obesity, diabetes, hypertension, diastolic dysfunction, and administered either vehicle, VASTIRAS™ (proANP31-67; VAS; 50 ng/Kg/day administered subcutaneously via Alzet osmotic pump), ENTRESTO™ (ENT; 68 mg/Kg/day administered orally via gavage), or VAS+ENT (VAS/ENT).

[1] = system: prostaglandin E2 (PGE2) formation in the kidney; settings: Chiou & Vesely 1995; cited from earlier work
[2] = system: ischemia-induced acute tubular necrosis and renal failure; settings: Recombinant proANP31-67; Clark et al. 2000; cited from earlier work
[3] = system: patients with congestive heart failure; settings: Delacroix et al. 2016; cited from earlier work
[4] = system: neprilysin and other endopeptidases; settings: cited from earlier work
[5] = in vivo; cited from earlier work
[6] = ZSF1-Ob rats, autopsy, VAS 50 ng/Kg/day sc, ENT 68 mg/Kg/day oral, FIGS. 3-4
[7] = ZSF1-Ob rats, cardiac ultrasound

## proANP31-67 (EVVPPQVLSEPNEEAGAALSPLPEVPPWTGEVSPAQR) [VAS]
ZSF1-Ob rats; ZSF1-Ob rats treated from 15 weeks old, assessed at 25 weeks-old, VAS 50 ng/Kg/day sc, ENT 68 mg/Kg/day oral gavage, FIGS. 5-6
  Elevated blood pressure: not affected
ZSF1-Ob rats; [6]
  atria weight (AW)/TL: tended to decrease
  body weight (BW): tended to decrease
  heart weight (HW)/tibia length (TL): tended to decrease
  kidney weight (KW)/TL: tended to decrease
ZSF1-Ob rats; [7]
  cardiac output: improved
  global longitudinal strain (GLS): tended to increase
ZSF1-Ob rats; ZSF1-Ob rats, renal ultrasound, FIGS. 7-13
  renal vascularity: preserved
[1]
  prostaglandin E2 (PGE2) formation in the kidney: stimulate
[2]
  ischemia-induced acute tubular necrosis and renal failure: protect
[3]
  treatment for renal impairment in patients with congestive heart failure: safe and effective
[4]
  degradation by neprilysin and other endopeptidases: resistant
[5]
  excretion in urine: excreted largely intact
